Data as given in PMC9635468, “Biological evaluation, docking studies, and in silico ADME prediction of some pyrimidine and pyridine derivatives as potential EGFR^WT and EGFR^T790M inhibitors” (Journal of Enzyme Inhibition and Medicinal Chemistry, 2022).
Converted amounts (≈) assume the structure as drawn.

Experiments:
VERO = experiment: Cytotoxicity screening, SRB assay, normal Vero cells; type: cell-based; details: 48 h, normal cell line; for IC50: Chlorocebus sabaeus, Vero
Protocol: (§1) In this study, a panel of cell lines was examined for their chemosensitivity. Different concentrations of the synthesised pyridines and pyrimidine derivatives were used in this study (5, 12.5, 25, and 50 µg/mL) for all the examined cell lines. In this study, breast tumour cell line (MCF7), hepatocellular carcinoma cell line (HEPG2), larynx cell line (HEP2), lung cancer cell line (H460), colon cancer cell line (HCT116 and Caco2), hypopharyngeal cell line (FADU), and normal Vero cell line were applied. The full methodology is described in the Supplementary data (SI 1).
(§2) SI 1: Cytotoxicity screening against human cancer cell lines
(§3) In this study, a panel of cell lines was examined for their chemosensitivity. Different concentrations of the synthesized pyridines and pyrimidines derivatives were used in this study (5, 12.5, 25, and 50 µg/ml) for all the examined cell lines. The most sensitive cell line to the treatment regimen was selected and subjected to further investigations to explore the mechanism of this interaction. Human breast tumor cell line (MCF7), human hepatocellular carcinoma cell line (HEPG2), human larynx cell line (HEP2), human lung cancer cell line (H460), human colon cancer cell line (HCT116 and Caco2), human hypopharyngeal cell line (FaDu), and normal cell line Vero were used in this study. It was obtained from the American Type Culture Collection (ATCC, Minnesota, USA). The tumor cell line was maintained at National Cancer Institute (NCI), Cairo, Egypt.
(§4) The antitumor activities of pyridines and pyrimidines derivatives and all tested cell lines were evaluated by sulphorhodamine-B (SRB) assay 1. Briefly, cells were seeded at a density of 3 × 10^3 cells/well in 96-well microtiter plates. They were left to attach for 24 h before incubation with drugs. Next, cells were treated with different concentrations of 5, 12.5, 25, and 50 µg/ml for MCF7, HEPG2, HEP2, HCT116, Caco2, H460, FaDu, and Vero cells. For each concentration, three wells were used and incubation was continued for 48 h. DMSO was used as a control vehicle (1 % v/v). At the end of incubation, cells were fixed with 20 % trichloroacetic acid and stained with 0.4 % SRB dye. The optical density (O.D.) of each well was measured spectrophotometrically at 570 nm using an ELISA microplate reader (TECAN sunrise™, Germany). The mean survival fraction at each drug concentration was calculated as follows: […]
(§5) O.D. of the treated cells/O.D. of the control cells. The IC50 (concentration that produces 50% of cell growth inhibition) value of each drug was calculated using sigmoidal dose-response curve-fitting models (Graph Pad Prizm software, version 5) 1.

FADU = experiment: Cytotoxicity screening, SRB assay, FADU; type: cell-based, human; details: 48 h; for IC50: Homo sapiens, FaDu
Protocol: as §1, §2, §3, §4, §5

HEP2 = experiment: Cytotoxicity screening, SRB assay, HEP2; type: cell-based, human; details: for IC50: Homo sapiens, HEp-2, 48 h
Protocol: as §1, §2, §3, §4, §5

H460 = experiment: Cytotoxicity screening, SRB assay, H460; type: cell-based, human; details: for IC50: Homo sapiens, NCI-H460, 48 h
Protocol: as §1, §2, §3, §4, §5

MCF7 = experiment: Cytotoxicity screening, SRB assay, MCF7; type: cell-based, human; details: for IC50: Homo sapiens, MCF7, 48 h
Protocol: as §1, §2, §3, §4, §5

HEPG2 = experiment: Cytotoxicity screening, SRB assay, HEPG2; type: cell-based, human; details: for IC50: Homo sapiens, HepG2, 48 h
Protocol: as §1, §2, §3, §4, §5

CaCo2 = experiment: Cytotoxicity screening, SRB assay, CaCo2; type: cell-based, human; details: for IC50: Homo sapiens, Caco-2, 48 h
Protocol: as §1, §2, §3, §4, §5

T47D = experiment: Cytotoxicity screening, SRB assay, T47D; type: cell-based, human; details: 48 h; for IC50: Homo sapiens, T47D
HCT116 = experiment: Cytotoxicity screening, SRB assay, HCT116; type: cell-based, human; details: for IC50: Homo sapiens, HCT-116, 48 h
Protocol: as §1, §2, §3, §4, §5

PI3Kd = tested on: PI3Kd; set-up: method as in PMID 29631787; details: inhibitory potential against PI3Kd; cited from earlier work
NF-kB = tested on: NF-kB; set-up: method as in PMID 25108361; details: inhibitory potential against NF-kB; cited from earlier work

Structure (SMILES)	IC50 (VERO) [µg/mL]	IC50 (FADU) [µg/mL]	IC50 (HEP2) [µg/mL]	IC50 (H460) [µg/mL]	IC50 (MCF7) [µg/mL]	IC50 (HEPG2) [µg/mL]	IC50 (CaCo2) [µg/mL]	IC50 (T47D) [µg/mL]	IC50 (HCT116) [µg/mL]	also measured
N#Cc1c(-c2cccs2)cc(-c2ccco2)nc1OCC(=O)NN [Compound 19]	36 (≈ 106 µM)	20.5 (≈ 60.2 µM)	43.5 (≈ 128 µM)	41.5 (≈ 122 µM)	39.5 (≈ 116 µM)	24.2 (≈ 71.1 µM)	10.8 (≈ 31.7 µM)	32 (≈ 94 µM)	–	–
c1coc(-c2cc(-c3cccs3)n3nnnc3n2)c1 [Compound 10]	28.5 (≈ 106 µM)	4.5 (≈ 16.7 µM)	22.8 (≈ 84.7 µM)	2.9 (≈ 10.8 µM)	18.7 (≈ 69.4 µM)	7.3 (≈ 27.1 µM)	–	18.2 (≈ 67.6 µM)	33.3 (≈ 124 µM)	–
N#Cc1c(-c2cccs2)cc(-c2ccco2)nc1OCC(=O)N/N=C/c1ccc([N+](=O)[O-])cc1 [Compound 20]	10.5 (≈ 22.2 µM)	8.5 (≈ 18 µM)	31 (≈ 65.5 µM)	11.3 (≈ 23.9 µM)	12.2 (≈ 25.8 µM)	11.5 (≈ 24.3 µM)	41.5 (≈ 87.7 µM)	49.5 (≈ 105 µM)	24.7 (≈ 52.2 µM)	–
N#Cc1c(-c2cccs2)cc(-c2ccco2)nc1Cl [Compound 15]	21.5 (≈ 75 µM)	17.5 (≈ 61 µM)	36.8 (≈ 128 µM)	21 (≈ 73.2 µM)	14.7 (≈ 51.3 µM)	12 (≈ 41.8 µM)	23.5 (≈ 82 µM)	49.4 (≈ 172 µM)	22 (≈ 76.7 µM)	–
N#Cc1c(-c2cccs2)cc(-c2ccco2)nc1-c1c[nH]c2ccccc12 [Compound 13]	–	15.9 (≈ 43.3 µM)	4.8 (≈ 13.1 µM)	–	7.8 (≈ 21.2 µM)	8.6 (≈ 23.4 µM)	–	21 (≈ 57.2 µM)	44.3 (≈ 121 µM)	–
CCOC(=O)COc1nc(-c2ccco2)cc(-c2cccs2)c1C#N [Compound 18]	24.5 (≈ 69.1 µM)	22 (≈ 62.1 µM)	23 (≈ 64.9 µM)	25 (≈ 70.5 µM)	21.5 (≈ 60.7 µM)	9 (≈ 25.4 µM)	23.5 (≈ 66.3 µM)	25.5 (≈ 72 µM)	36.7 (≈ 104 µM)	–
Clc1nc(-c2ccco2)cc(-c2cccs2)c1-c1nnn[nH]1 [Compound 16]	4.5 (≈ 13.6 µM)	9 (≈ 27.3 µM)	31 (≈ 94 µM)	19.4 (≈ 58.8 µM)	21 (≈ 63.7 µM)	9.7 (≈ 29.4 µM)	18.2 (≈ 55.2 µM)	8.9 (≈ 27 µM)	27 (≈ 81.9 µM)	–
N#Cc1c(-c2cccs2)cc(-c2ccco2)nc1OCC(=O)N/N=C1/C(=O)Nc2ccccc21 [Compound 21]	38.2 (≈ 81.4 µM)	10.9 (≈ 23.2 µM)	19.8 (≈ 42.2 µM)	23.3 (≈ 49.6 µM)	9.5 (≈ 20.2 µM)	5 (≈ 10.7 µM)	34 (≈ 72.4 µM)	17 (≈ 36.2 µM)	–	–
c1coc(-c2cc(-c3cccs3)n3cnnc3n2)c1 [Compound 9]	32.5 (≈ 121 µM)	19.6 (≈ 73.1 µM)	14.7 (≈ 54.8 µM)	43.2 (≈ 161 µM)	17.2 (≈ 64.1 µM)	18.5 (≈ 69 µM)	23.5 (≈ 87.6 µM)	11.5 (≈ 42.9 µM)	24.3 (≈ 90.6 µM)	–
C1=C(c2ccco2)n2c(nc3ccccc32)SC1c1cccs1 (centres unmarked) [Compound 11]	24 (≈ 71.3 µM)	18.2 (≈ 54.1 µM)	19.5 (≈ 58 µM)	4.3 (≈ 12.8 µM)	15.9 (≈ 47.3 µM)	18.5 (≈ 55 µM)	24.8 (≈ 73.7 µM)	19.5 (≈ 58 µM)	42 (≈ 125 µM)	–
COc1ncc(-c2cc(NC(=O)c3coc(CN4CCN(C(C)C)CC4)n3)c3cnn(C)c3n2)cc1NS(C)(=O)=O [Compound I]	–	–	–	–	–	–	–	–	–	IC50 (PI3Kd): 0.0084 µM
N#Cc1c(-c2cccs2)cc(-c2ccco2)nc1NN [Compound 17]	16.5 (≈ 58.4 µM)	10.5 (≈ 37.2 µM)	24 (≈ 85 µM)	12.7 (≈ 45 µM)	34 (≈ 120 µM)	4.9 (≈ 17.4 µM)	24 (≈ 85 µM)	4.9 (≈ 17.4 µM)	19.3 (≈ 68.4 µM)	–
Nc1nn2c(-c3cccs3)cc(-c3ccco3)nc2c1/N=N/c1ccc([N+](=O)[O-])cc1 [Compound 7]	12 (≈ 27.8 µM)	8.3 (≈ 19.2 µM)	35.2 (≈ 81.6 µM)	3.7 (≈ 8.58 µM)	13.7 (≈ 31.8 µM)	12 (≈ 27.8 µM)	21.5 (≈ 49.8 µM)	44.5 (≈ 103 µM)	15 (≈ 34.8 µM)	–
CC1Cc2cnc3[nH]nc(N)c3c2-c2ccccc21 (centres unmarked) [Compound IV]	–	–	–	–	–	–	–	–	–	IC50 (NF-kB): 4.7 µM
COc1cccc2c1C(=O)c1c(O)c3c(c(O)c1C2=O)C[C@@](O)(C(=O)CO)C[C@@H]3O[C@H]1C[C@H](N)[C@H](O)[C@H](C)O1 [DOX, reference compound]	–	–	–	–	–	–	–	–	–	VERO IC50 (VERO): 23.00 µg/mL; FADU IC50 (FADU): 7.00 µg/mL; HCT116 IC50 (HCT116; 48 h): 5.50 µg/mL; HEP2 IC50 (HEP2; 48 h): 5.60 µg/mL; H460 IC50 (H460; 48 h): 6.50 µg/mL; MCF7 IC50 (MCF7; 48 h): 4.50 µg/mL; HEPG2 IC50 (HEPG2; 48 h): 4.58 µg/mL; CaCo2 IC50 (CaCo2; 48 h): 6.00 µg/mL; T47D IC50 (T47D): 4.00 µg/mL
Cc1cnc2[nH]nc(N)c2c1-c1ccccc1 [Compound VI]	–	–	–	–	–	–	–	–	–	IC50 (NF-kB): 39.8 µM
Nc1n[nH]c2ncc3c(c12)-c1ccccc1CC3 [Compound V]	–	–	–	–	–	–	–	–	–	IC50 (NF-kB): 6.9 µM
COc1ncc(-c2cc(O[C@@H]3CCN(C(=O)C4CCOCC4)C3)c3cnn(C)c3n2)cc1NS(C)(=O)=O [Compound II]	–	–	–	–	–	–	–	–	–	IC50 (PI3Kd): 0.0053 µM
